Target: 5HT2A receptor (Homo sapiens, UniProt P28223)
Test: Ca2+i mobilization by autosampling flow cytometry, single cell threshold analysis, Indo-1-loaded cells
Type: cell-based
Details: 1 uM serotonin; percent of cells with Ca2+i at least 2 SD above mean of buffer control
Description: Left panel: distribution of Ca^2+i levels measured by intensity ratio, and determination of threshold level as shown by arrow.
A rotated histogram plot of such a response, and of the basal population, is shown in the left panel of FIG. 22, where the Ca^2+i level is shown on the x-axis and the number of cells attaining each Ca^2+i level is on the y-axis. […] The threshold is set by calculating the mean of the Ca^2+i level in the buffer control sample and calculating one (1) or more standard deviations above the mean. The choice to use one or more standard deviations is based on minimizing the error between buffer control samples and fully activated positive control samples. […] A threshold level at two standard deviations above the mean Ca^2+i level is shown by the arrow. Because the single cell flow cytometry as provided herein can analyze samples rapidly, about 100 to 200 cells, or more, can be analyzed in a short period. […] Data analysis is implemented in an automated software algorithm that automatically calculates Chi Square values along with the response frequency for each sample.

Chain of 5HT2A receptor (P28223 whole entry): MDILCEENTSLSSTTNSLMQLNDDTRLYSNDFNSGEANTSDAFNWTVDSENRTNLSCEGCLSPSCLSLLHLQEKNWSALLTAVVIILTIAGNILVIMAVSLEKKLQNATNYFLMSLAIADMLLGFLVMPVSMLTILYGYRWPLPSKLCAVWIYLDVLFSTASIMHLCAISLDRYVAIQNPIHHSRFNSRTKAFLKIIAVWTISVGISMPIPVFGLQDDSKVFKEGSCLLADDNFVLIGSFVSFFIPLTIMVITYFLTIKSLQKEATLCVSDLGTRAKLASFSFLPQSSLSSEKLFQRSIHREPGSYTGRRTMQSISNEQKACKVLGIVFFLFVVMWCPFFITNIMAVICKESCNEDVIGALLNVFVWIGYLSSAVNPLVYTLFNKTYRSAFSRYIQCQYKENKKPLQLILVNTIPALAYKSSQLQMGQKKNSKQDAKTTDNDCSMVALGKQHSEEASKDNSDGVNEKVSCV

signal to baseline ratio (stimulated to unstimulated response frequency): over 50
Structure (SMILES): NCCc1c[nH]c2ccc(O)cc12 [serotonin]

From US20050009060A1, “Multiplexed multitarget screening method” (priority 2003, published 2005)
